Assay: Jurkat reporter gene cellular assay
Assay type: cell-based
Conditions: Homo sapiens; Jurkat/NF-κB-luc/PD1 + Raji-PD-L1 coculture, OKT3 1 μg/mL, 6 hrs, activation fold; read-out: Cell Activity EC50
Experimental: The effect of compounds of the examples of the present invention and positive compounds on the interaction between PD-1 and PD-L1 expressed on cell surfaces, and the related influence on T cell functions, were determined by a Jurkat reporter gene cellular assay.
Briefly, the reporter gene plasmid of NF-κB-luc and the plasmid of human PD-1 were transfected into Jurkat cells to establish a stably transfected cell line capable of stably expressing both PD-1 and NF-κB-Luc reporter genes; the expression level of PD-1 on the cell surface was confirmed by flow cytometry; and the expression of the reporter gene was confirmed via the response of the reporter gene stimulated by OKT-3 and Raiji cells.
In addition, the plasmid of human PD-L1 was transfected into Raji cells to obtain a cell line capable of stably expressing PD-L1. Jurkat/NF-κB-luc/PD1 cells and Raji-PD-L1 cells were then cocultured and stimulated with OKT-3. On this basis, the compounds were added, and the enhancement of the signal pathway of T cell activation by the inhibitory effect of the compounds on the interaction between PD-1 and PD-L1 was evaluated by readings of reporter gene responses. The specific experimental process was as follows: • 1) 30 μL of compound or antibody solution was added to each well of a white 96-well plate (coming, 3610) at different diluted concentrations, and 10 μL of OKT3 (Biolegend, 317326) was then added (the final concentration of OKT3: 1 μg/mL); • 2) 20 μL of Raji-PD-L1 cell suspension was added to each well with 5*10^4 cells for each well, and was incubated in an incubator for 20 min: • 3) 20 μL of Jurkat/NF-κb-luc/PD-1 cell suspension was added to each well with 5*10^4 cells for each well, and well mixed, and 6 hrs later, Bright-glo (Promega, E2620) was applied and plates were read on Envision; • 4) The reading of each well treated with the compound was compared with the reading of each well treated with DMSO to obtain the activation fold of the compound; • 5) EC50 values of compounds and positive compounds of the examples of the present invention were determined by non-linear regression analysis of activation folds at different compound concentrations.

Structure (SMILES) | EC50 [µM]
Cn1c(C(=O)Nc2cccc(-c3cccc(NC(=O)c4cc5c(cn4)CN(C4CCC(C)(C(=O)O)CC4)CC5)c3Cl)c2Cl)nc2c1CCN(CCC13CCC(C(=O)O)(CC1)C3)C2 (centres unmarked) [Example 65, 4-(2-(2-((3′-(7-(4-carboxy-4-methylcyclohexyl)-5,6,7,8-tetrahydro-2,7-naphthyridine-3-carboxamido)-2,2′-dichloro-[1,1′-biphenyl]-3-yl)carbamoyl)-1-methyl-1,4,6,7-tetrahydro-5H-imidazo[4,5-c]pyridin-5-yl)ethyl)bicyclo[2.2.1]heptane-1-carboxylic acid] | 0.122
CCOC(=O)[C@@H](CO)NCc1cnc2c(Nc3cccc(-c4cccc(/C=C(\F)c5cc6c(cn5)CN(C[C@@H](C)O)CC6)c4Cl)c3Cl)nccc2c1 [Example 72, ethyl ((8-((2,2′-dichloro-3′-((Z)-2-fluoro-2-(7-((R)-2-hydroxypropyl)-5,6,7,8-tetrahydro-2,7-naphthyridin-3-yl)vinyl)-[1,1′-biphenyl]-3-yl)amino)-1,7-naphthyridin-3-yl)methyl)-D-serinate] | 1.43
C[C@@H](O)CN1CCc2cc(C(=O)Nc3cccc(-c4cccc(NC(=O)c5nc6c(n5C)CCN(CCC57CCC(C(=O)O)(CC5)C7)C6)c4Cl)c3Cl)ncc2C1 [Example 8, (R)-4-(2-(2-((2,2′-dichloro-3′-(7-(2-hydroxypropyl)-5,6,7,8-tetrahydro-2,7-naphthyridine-3-carboxamido)-[1,1′-biphenyl]-3-yl)carbamoyl)-1-methyl-1,4,6,7-tetrahydro-5H-imidazo[4,5-c]pyridin-5-yl)ethyl)bicyclo[2.2.1]heptane-1-carboxylic acid] | 0.0598
CC(C)N1CCc2cc(C(=O)Nc3cccc(-c4cccc(NC(=O)c5nc6c(n5C)CCN(CC57CCC(C(=O)O)(CC5)C7)C6)c4Cl)c3Cl)ncc2C1 [Example 19, 4-((2-((2,2′-dichloro-3′-(7-isopropyl-5,6,7,8-tetrahydro-2,7-naphthyridine-3-carboxamido)-[1,1′-biphenyl]-3-yl)carbamoyl)-1-methyl-1,4,6,7-tetrahydro-5H-imidazo[4,5-c]pyridin-5-yl)methyl)bicyclo[2.2.1] heptane-1-carboxylic acid] | 0.0588
Cn1c(C(=O)Nc2cccc(-c3cccc(NC(=O)c4cc5c(cn4)CN(CCCO)CC5)c3Cl)c2Cl)nc2c1CCN(CCC13CCC(C(=O)O)(CC1)C3)C2 [Example 9, 4-(2-(2-((2,2′-dichloro-3′-(7-(3-hydroxypropyl)-5,6,7,8-tetrahydro-2,7-naphthyridine-3-carboxamido)-[1,1′-biphenyl]-3-yl)carbamoyl)-1-methyl-1,4,6,7-tetrahydro-5H-imidazo[4,5-c]pyridin-5-yl)ethyl) bicyclo[2.2.1]heptane-1-carboxylic acid] | 0.177
Cc1c(/C=C(\F)c2cc3c(cn2)CN(CCC24CCC(C(=O)O)(CC2)C4)CC3)cccc1-c1cccc(Nc2nccc3cc(CNC[C@@H]4CCC(=O)N4)cnc23)c1C [Example 74, (S,Z)-4-(2-(6-(2-(2,2′-dimethyl-3′-((3-((((5-oxopyrrolidin-2-yl)methyl)amino)methyl)-1,7-naphthyridin-8-yl)amino)-[1,1′-biphenyl]-3-yl)-1-fluorovinyl)-3,4-dihydro-2,7-naphthyridin-2(1H)-yl)ethyl)bicyclo [2.2.1]heptane-1-carboxylic acid] | 1.4
CC(C)N1CCc2cc(C(=O)Nc3cccc(-c4cccc(NC(=O)c5cc6c(cn5)CN(C(C)C)CC6)c4Cl)c3Cl)ncc2C1 [Example 66] | > 10
CC(C)N1CCc2cc(/C(F)=C/c3cccc(-c4cccc(Nc5nccc6cc(CN[C@H](CO)C(=O)O)cnc56)c4Cl)c3Cl)ncc2C1 [Example 71, (Z)-((8-((2,2′-dichloro-3′-(2-fluoro-2-(7-isopropyl-5,6,7,8-tetrahydro-2,7-naphthyridin-3-yl)vinyl)-[1,1′-biphenyl]-3-yl)amino)-1,7-naphthyridin-3-yl)methyl)-D-serine] | 0.772
CC(C)N1CCc2cc(C(=O)Nc3cccc(-c4cccc(NC(=O)c5ccc6c(n5)CN(CCC57CCC(C(=O)O)(CC5)C7)CC6)c4Cl)c3Cl)ncc2C1 [Example 68, 4-(2-(2-((2,2′-dichloro-3′-(7-isopropyl-5,6,7,8-tetrahydro-2,7-yridine-3-carboxamido)-[1,1′-biphenyl]-3-yl)carbamoyl)-5,8-dihydro-1,7-naphthyridin-7(6H)-yl)ethyl)bicyclo[2.2.1]heptane-1-carboxylic acid] | 0.177
Cn1c(C(=O)Nc2cccc(-c3cccc(NC(=O)c4cc5c(cn4)CN(CCC(C)(C)O)CC5)c3Cl)c2Cl)nc2c1CCN(CCC13CCC(C(=O)O)(CC1)C3)C2 [Example 13, 4-(2-(2-((2,2′-dichloro-3′-(7-(3-hydroxy-3-methylbutyl)-5,6,7,8-tetrahydro-2,7-naphthyridine-3-carboxamido)-[1,1′-biphenyl]-3-yl)carbamoyl)-1-methyl-1,4,6,7-tetrahydro-5H-imidazo[4,5-c]pyridin-5-yl)ethyl)bicyclo[2.2.1]heptane-1-carboxylic acid] | 0.0789

Results, then the molecule that gave them:

EC50 [µM] | Structure (SMILES)
0.104 | Cn1c(C(=O)Nc2cccc(-c3cccc(NC(=O)c4cc5c(cn4)CN([C@H]4CC[C@H](O)CC4)CC5)c3Cl)c2Cl)nc2c1CCN(CCC13CCC(C(=O)O)(CC1)C3)C2 [Example 63, 4-(2-(2-((2,2′-dichloro-3′-(7-((1R,4R)-4-hydroxycyclohexyl)-5,6,7,8-tetrahydro-2,7-naphthyridine-3-carboxamido)-[1,1′-biphenyl]-3-yl)carbamoyl)-1-methyl-1,4,6,7-tetrahydro-5H-imidazo[4,5-c]pyridin-5-yl)ethyl)bicyclo[2.2.1]heptane-1-carboxylic acid]
0.114 | Cn1c(C(=O)Nc2cccc(-c3cccc(NC(=O)c4cc5c(cn4)CN([C@H]4CC[C@@H](O)CC4)CC5)c3Cl)c2Cl)nc2c1CCN(CCC13CCC(C(=O)O)(CC1)C3)C2 [Example 12, 4-(2-(2-((2,2′-dichloro-3′-(7-((1S,4S)-4-hydroxycyclohexyl)-5,6,7,8-tetrahydro-2,7-naphthyridine-3-carboxamido)-[1,1′-biphenyl]-3-yl)carbamoyl)-1-methyl-1,4,6,7-tetrahydro-5H-imidazo[4,5-c]pyridin-5-yl)ethyl)bicyclo[2.2.1]heptane-1-carboxylic acid]
0.155 | Cn1c(C(=O)Nc2cccc(-c3cccc(NC(=O)c4cc5c(cn4)CN(C4CCCC4)CC5)c3Cl)c2Cl)nc2c1CCN(CCC13CCC(C(=O)O)(CC1)C3)C2 [Example 64, 4-(2-(2-((2,2′-dichloro-3′-(7-cyclopentyl-5,6,7,8-tetrahydro-2,7-naphthyridine-3-carboxamido)-[1,1′-biphenyl]-3-yl)carbamoyl)-1-methyl-1,4,6,7-tetrahydro-5H-imidazo[4,5-c]pyridin-5-yl)ethyl)bicyclo [2.2.1]heptane-1-carboxylic acid]
0.108 | Cn1c(C(=O)Nc2cccc(-c3cccc(NC(=O)c4cc5c(cn4)CN(C4CCC4)CC5)c3Cl)c2Cl)nc2c1CCN(CCC13CCC(C(=O)O)(CC1)C3)C2 [Example 5, 4-(2-(2-((2,2′-dichloro-3′-(7-cyclobutyl-5,6,7,8-tetrahydro-2,7-naphthyridine-3-carboxamido)-[1,1′-biphenyl]-3-yl)carbamoyl)-1-methyl-1,4,6,7-tetrahydro-5H-imidazo[4,5-c]pyridin-5-yl)ethyl)bicyclo [2.2.1]heptane-1-carboxylic acid]
